{"source": "patent US11207369B2", "about": "“Compositions and methods for modulating ciliogenesis” (UNIVERSITY OF PITTSBURGH-OF THE COMMONWEALTH SYSTEM OF …, priority 2017, dated 2021)", "key": {"[1]": {"test_system": "mouse tracheal epithelial cells", "test": "Ex vivo reciliation of mouse tracheal epithelial cells in suspension culture (video-microscopy)", "assay_type": "cell-based", "source_text": "All animal protocols were approved by the University of Pittsburgh Animal Care and Use Committee. Wild-type, C57B6, adult mice (6-8 weeks of age) were euthanized with inhalational CO2, anterior neck regions were washed with 70% ethanol, and a transverse incision was made across the neck at the mid-cervical level. […] The trachea was gently dissected from the underlying adherent esophagus and connective tissue, pulled out and transected proximally first from the larynx and then distally as far down as possible, close to the carina, and placed in a petri dish containing about 10 ml Leibovitz-15 solution (Gibco; 21083). Isolated tracheas were cleaned of adherent muscle tissue, blood vessels and fat under a dissecting microscope, then incised, splaying the trachea length-wise.\nTwelve ml of Leibovitz-15 solution were placed in a 15 ml falcon tube, and 6 cleaned, incised tracheas were added to each tube. Pronase (Protease from Streptomyces griseus, Sigma, P5147) was added to a final concentration of 1.5 mg/ml (Stock solution, 150 mg/ml, 100×) and placed in 4° C. overnight with gentle shaking. After incubation, Pronase was neutralized with addition of fetal bovine serum to a final concentration of 10% (1.2 ml/tube). Tracheas and denuded epithelial cells were centrifuged at 1200 rpms for 6 minutes. Supernatant was aspirated, and trachea/cells were re-suspended in 12 ml Stationary media (500 ml DMEM/F12, 10 ml of Ultroser G, and 10 ml of 100× Antibiotics-Antimycotic). The cells/tracheas were pipetted up and down vigorously 12-20 times, and vortexed to re-suspend pelleted tracheas if necessary. Trachea/cells were centrifuged again, supernatants were aspirated, pellets were re-suspended in 6 ml of stationary medium, and then everything was transferred to a Primaria plate (Corning, 353803) or a regular cell culture plate (Corning, 353003), and incubated at 37° C./5% CO2 for 6 hours. This was performed to plate out fibroblasts, thereby minimizing contamination of tracheal epithelial cells with fibroblasts. After incubation, non-adherent cells were collected by lightly washing the plates with stationary media present in the plates. Cells were pelleted, supernatant aspirated, cells re-suspended in 12 ml of stationary medium and added to a 6-well plate (2 ml/well) coated with rat tail collagen.\nTracheal epithelial cells were obtained from mice and processed for stationary culture as detailed above. The tracheal epithelial cells were placed onto rat-tail collagen coated wells and then incubated at 37° C./5% CO2 for 36-48 hrs. Over the course of about 48 hours, the cells seeded onto the collagen lost their cilia and underwent proliferative growth, expanding in numbers. […]"}, "airway epithelial cells": {"test_system": "airway epithelial cells", "test": "Inhalational administration to subjects with COPD, video-microscopy of airway epithelial cells", "assay_type": "in vivo, human", "details": "approx. 1 mg/kg inhaled once per day for seven days", "protocol": "Ten subjects are diagnosed with Chronic Obstructive Pulmonary Disease (COPD). Each subject provides informed consent regarding providing epithelial cell samples and to receiving a blinded treatment of either DAPT or a control placebo. […] The epithelial cells are placed into suitable medium such as Leibovitz-15 medium. Thereafter, cell samples are evaluated for percentage ciliation, cilia length, and/or cilia beat frequency by video-microscopy, and the results are recorded. Video-microscopy confirms each subject has epithelial cells which are reduced in cilia number, cilia length, and/or cilia beat frequency compared to averages or standards present in the medical literature.\nDAPT is inhalationally administered to five of the subjects via a nebulizer or an inhaler (hereinafter, “DAPT-treated subjects”). […]\n(§1) The epithelial cells are placed into suitable medium such as Leibovitz-15 medium. Thereafter, cell samples are evaluated for percentage ciliation, cilia length, and/or cilia beat frequency by video-microscopy, and the results are recorded. Video-microscopy confirms each of the five DAPT-treated subjects has epithelial cells which are increased in cilia number, cilia length, and/or cilia beat frequency as compared to both 1) the epithelial cells of placebo-treated subjects, and 2) the pre-treatment measurements recorded for epithelial cells of each respective DAPT-treated subject. […]"}, "[2]": {"test_system": "human nasal epithelial cells", "test": "Ex vivo reciliation of human nasal epithelial cells in suspension culture (video-microscopy)", "assay_type": "cell-based", "details": "2 nM DAPT vs regular media", "protocol": "Cells were immediately placed into 5 ml Leibovitz-15 medium prior to processing for stationary culture.\nThese cells were spun down, the supernatant was aspirated, cells were resuspended in 6 ml of stationary medium, and then plated onto 3 wells of a 6-well rat tail collagen coated plate. The media was changed 48-72 hours post plating and fed every 2 days until confluence was reached. Following confluence, the treatment of mouse tracheal epithelial cells and human nasal epithelial cells was identical e.g., placement into suspension culture, video microscopy, etc. siRNA knockdown was only performed in mouse tracheal tissue due to the paucity of human nasal epithelial cells.\nOnce confluence was reached, typically occurring between about 7 to 10 days, the stationary media was aspirated, and collagen was digested with 1 ml of Collagenase 4 (200 IU/ml, Worthington, LS004210) for 75-90 mins at 37° C./5% CO2. After incubation, collagenase was neutralized using 2 ml of Suspension media (500 ml DMEN/F12, 50 ml NuSerum, 10 ml 100× Antibiotics-Antimycotic). Cells adherent to the bottom of the plate were gently scrapped off with a cell scraper (Fisherbrand, 08-100-241). […]\nReciliation was observed by about days 7 to 9 with high-speed video-microscopy (200 fps) with a 60× oil-immersion lens (FIG. 2A). […] The outlined total surface and ciliated surface alone was quantified. Extent of ciliation was calculated by dividing the length of ciliated surface by the length of the entire surface available for ciliation, and converted to a percentage.\nTo measure cilia length in reciliated nasal tissue, each recording was processed with a custom script written for Fiji, an open-source image analysis software (Schindelin, et al., Nat. Methods, 2012, 9:676-682). This script used the Temporal Median filter to segment patches of cilia based on movement, and the Thickness tool in the BoneJ analysis toolkit (Doube, et al., Bone, 2010, 47:1076-1079) measured average cilia length. Ciliary beat frequency was measured in cilia beats per second (Hertz).] […]"}, "[3]": {"test_system": "Hes1, Hes5, Hey1, Notch1, Psen1, Hif1α, nNOS, iNOS, eNOS", "test": "qPCR of gene expression in mouse tracheal epithelial cells during ciliogenesis", "assay_type": "cell-based", "details": "2 nM DAPT vs untreated, varying time points in suspension culture, most prominently day 5", "protocol": "FIGS. 7(A-I) are graphs showing quantitative […] (qPCR) of gene expression in mouse tracheal epithelial cells during ciliogenesis. Cells were grown to confluence in stationary culture, treated with collagenase, then placed into suspension culture having 0 nM or 2 nM DAPT, which marked the “baseline” time point. At the indicated times, qPCR experiments were performed to detect gene expression of Hes1 (FIG. 7A), Hes5 (FIG. 7B), Hey1 (FIG. 7C), Psen1 (FIG. 7D), Hif1α (FIG. 7E), Notch1 (FIG. 7F), nNOS (FIG. 7G), iNOS (FIG. 7H), and eNOS (FIG. 7I).\nIndeed, expression of multiple genes such as Hes1, Hes5, Hey1, Notch1, Psen1, Hif1α, nNOS, iNOS, and eNOS was altered at varying time points during ciliogenesis in suspension culture containing 2 nM DAPT, as compared to untreated (no DAPT) controls (FIGS. 7A-[…]). […] This effect was most marked for the three isoforms of nitric oxide synthase (NOS)."}, "ependymal cells": {"test_system": "ependymal cells", "test": "Intrathecal administration to subjects with hydrocephalus, video-microscopy of ependymal cells", "assay_type": "in vivo, human", "details": "approx. 1 mg/kg intrathecal once", "protocol": "Ten subjects are diagnosed with hydrocephalus. Each subject provides informed consent regarding providing epithelial cell samples and to receiving a blinded treatment of either DAPT or a control placebo. Intrathecal biopsy is used to obtain ependymal cells from the cerebrospinal fluid of each subject. The ependymal cells are placed into suitable medium such as Leibovitz-15 medium. Thereafter, cell samples are evaluated for percentage ciliation, cilia length, and/or cilia beat frequency by video-microscopy, and the results are recorded. Video-microscopy confirms each subject has ependymal cells which are reduced in cilia number, cilia length, and/or cilia beat frequency compared to averages or standards present in the medical literature. […]\nas §1, with “On day eight post-injection, ependymal” for “The epithelial”, “obtained from the cerebrospinal fluid of each subject by intrathecal biopsy. […]” for “placed into suitable medium such as Leibovitz-15 medium.”, “ependymal” for “epithelial”"}, "[4]": {"details": "2 nM DAPT vs untreated, 8 days suspension culture"}, "[5]": {"details": "day eight, vs placebo and pre-treatment"}, "[6]": {"details": "12 subjects with congenital heart defects"}}, "note": "Entries after “also recorded” stand apart in the source; their conditions may differ.", "data": [{"molecule": "C[C@H](NC(=O)Cc1cc(F)cc(F)c1)C(=O)N[C@H](C(=O)OC(C)(C)C)c1ccccc1", "note": "[DAPT, N—[N-(3,5-Difluorophenacetyl)-L-alanyl]-S-phenylglycine t-butyl ester]", "values": [{"measurement": "cilia beat frequency", "setting": "[1]; [4]", "result": "significantly increased"}, {"measurement": "cilia length", "setting": "[1]; [4]", "result": "significantly increased"}, {"measurement": "increased ciliogenesis over baseline (percent ciliation)", "setting": "[1]; 2 nM DAPT, 8 days suspension culture", "result": "~3", "unit": "fold"}, {"measurement": "toxicity to cells (cell death, very few if any ciliated cells)", "setting": "[1]; 2 μM DAPT or more, DMSO volume constant", "result": "toxic to cells"}, {"measurement": "cilia number, cilia length, and/or cilia beat frequency of epithelial cells", "setting": "airway epithelial cells; [5]", "result": "increased"}, {"measurement": "symptoms of COPD (e.g., coughing)", "setting": "airway epithelial cells; some subjects", "result": "ameliorated"}, {"measurement": "percentage reciliation (percent ciliation)", "setting": "[2]; 12 paired samples from subjects with congenital heart defects", "result": "significantly greater; also recorded: significant increases"}, {"measurement": "cilia beat frequency", "setting": "[2]; [6]", "result": "significantly increased; also recorded: significant increases"}, {"measurement": "cilia length", "setting": "[2]; [6]", "result": "significantly increased; also recorded: significant increases"}, {"measurement": "expression of Hes1, Hes5, Hey1, Notch1, Psen1, Hif1α, nNOS, iNOS and eNOS", "setting": "[3]", "result": "altered"}, {"measurement": "cilia number, cilia length, and/or cilia beat frequency of ependymal cells", "setting": "ependymal cells; [5]", "result": "increased"}, {"measurement": "symptoms of hydrocephalus (e.g., headache)", "setting": "ependymal cells; some subjects", "result": "ameliorated"}]}]}
